In patent US20230062100A1, “SUBSTITUTED AMINOQUINOLONES AS DGKALPHA INHIBITORS FOR IMMUNE ACTIVATION” (Bayer Aktiengesellschaft, priority 2019, published 2023) one finds IC50 data, which are given here for 28 compounds.

SMILES strings stand for the structures.

DGKα, sequence (P23743 with tags, fused parts or gaps): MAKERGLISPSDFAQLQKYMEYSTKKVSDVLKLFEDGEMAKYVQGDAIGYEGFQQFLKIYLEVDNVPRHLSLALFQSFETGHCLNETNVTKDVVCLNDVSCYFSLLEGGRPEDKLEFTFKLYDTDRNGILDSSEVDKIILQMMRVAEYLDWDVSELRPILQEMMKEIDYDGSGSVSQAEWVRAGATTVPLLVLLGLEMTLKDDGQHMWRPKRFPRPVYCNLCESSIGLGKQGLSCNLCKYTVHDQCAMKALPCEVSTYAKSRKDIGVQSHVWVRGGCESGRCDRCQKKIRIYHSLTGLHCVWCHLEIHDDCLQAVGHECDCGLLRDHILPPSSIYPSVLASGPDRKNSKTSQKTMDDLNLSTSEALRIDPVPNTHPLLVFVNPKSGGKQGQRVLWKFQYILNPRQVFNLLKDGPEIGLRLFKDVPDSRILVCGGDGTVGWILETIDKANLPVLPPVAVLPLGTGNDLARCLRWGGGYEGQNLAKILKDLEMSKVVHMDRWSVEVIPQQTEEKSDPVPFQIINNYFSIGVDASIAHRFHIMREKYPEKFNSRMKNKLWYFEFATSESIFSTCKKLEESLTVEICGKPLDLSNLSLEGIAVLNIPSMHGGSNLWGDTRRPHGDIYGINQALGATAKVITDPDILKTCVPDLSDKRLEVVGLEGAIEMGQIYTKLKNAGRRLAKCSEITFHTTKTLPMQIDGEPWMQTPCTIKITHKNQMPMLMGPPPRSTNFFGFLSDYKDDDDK

This experiment concerns the target DGKα (Homo sapiens, UniProt P23743). As to the kind of experiment: Human DGKα kinase activity inhibition assay (ADP-Glo). Type of experiment: biochemical. The note with it: in vitro human DGKα kinase activity inhibition assay. As for the experimental part:
Human DGKα inhibitory activity of compounds of the present invention was quantified employing the human DGKα kinase activity assay as described in the following paragraphs. In essence, the enzyme activity was measured by quantification of the adenosine-di-phosphate (ADP) generated as a co-product of the enzyme reaction via the “ADP-Glo™ Kinase Assay” kit from the company Promega. This detection system works as follows: In a first step the ATP not consumed in the kinase reaction is quantitatively converted to cAMP employing an adenylate cyclase (“ADP-Glo-reagent”), then the adenylate cyclase is stopped and the ADP generated in the kinase reaction converted to ATP, which subsequently generates in a luciferase-based reaction a glow-luminescence signal (“Kinase Detection Reagent”). C-terminally FLAG-tagged, recombinant full-length human DGKα (expressed in baculovirus infected insect cells, purified using anti-Flag pulldown and size exclusion chromatography as described below, DGKα_hu_1) was used as enzyme. As substrate for the kinase 1,2-dioleoyl-sn-glycerol, reconstituted in octyl-β-D-glucopyranoside micelles, was used. For the preparation of the micelles, 1 volume of a 16.1 mM solution of 1,2-dioleoyl-sn-glycerol (Avanti, Cat. #O8001-25G) in chloroform was slowly evaporated using a nitrogen stream. Subsequently, 22.55 volumes of a 510 mM solution of octyl-β-D-glucopyranoside (Sigma-Aldrich, Cat. #O8001-10G) in 50 mM MOPS buffer (pH 7.4) were added, and the mixture was sonicated in an ultrasonic bath for 20 s. Then 35 volumes of 50 mM MOPS buffer (pH 7.4) were added to yield a solution of 0.28 mM 1,2 dioleoyl-sn-glycerol and 200 mM octyl-β-D-glucopyranoside, which was aliquoted, flash-frozen in liquid nitrogen, and stored at −20° C. until use. For each experiment, a fresh aliquot was quickly thawed and diluted 24-fold with aqueous assay buffer (described below) containing 95.7 μM adenosine triphosphate (Promega) to yield a 1.67-fold concentrated substrate solution. For the assay 50 nl of a 100-fold concentrated solution of the test compound in dimethyl sulfoxide (DMSO, Sigma) was pipetted into either a white 1536-well or a white low-volume 384-well microtiter plate (both Greiner Bio-One, Frickenhausen, Germany). […] The concentration of DGK a was adjusted depending of the activity of the enzyme lot and was chosen appropriate to have the assay in the linear range, a typical concentration is about 0.1 nM. The reaction was stopped by the addition of 2.5 μl of “ADP-Glo-reagent” (1 to 1.5 diluted with water) and the resulting mixture was incubated at 22° C. for 1 h to convert the ATP not consumed in the kinase reaction completely to cAMP. […] The amount of emitted light was taken as a measure for the amount of ADP generated and thereby for the activity of the DGKα.
Compound `Cc1ccccc1COC1CCN(c2c(C#N)c(=O)n(C)c3ccccc23)CC1` [Example 114, 1-methyl-4-{4-[(2-methylphenyl)methoxy]piperidin-1-yl}-2-oxo-1,2-dihydroquinoline-3-carbonitrile] showed an IC50 of 16 nM. In the case of `Cn1c(=O)c(C(N)=O)c(N2CCC(OCc3ccccc3)CC2)c2ccccc21` [Example 121, 4-[4-(benzyloxy)piperidin-1-yl]-1-methyl-2-oxo-1,2-dihydroquinoline-3-carboxamide] it was 16 nM; in that of `COc1cc(C)ccc1OC1CCN(c2c(C#N)c(=O)n(C)c3ccccc23)CC1` [Example 31, 4-[4-(2-methoxy-4-methylphenoxy)piperidin-1-yl]-1-methyl-2-oxo-1,2-dihydroquinoline-3-carbonitrile], 6.8 nM; in that of `Cn1c(=O)c(C(N)=O)c(N2CCC(OCc3ccc(F)cc3)CC2)c2ccccc21` [Example 127, 4-{4-[(4-fluorophenyl)methoxy]piperidin-1-yl}-1-methyl-2-oxo-1,2-dihydroquinoline-3-carboxamide], 14 nM. In the case of `Cn1c(=O)c(C#N)c(N2CCC(Oc3ccc(OC(F)(F)F)cc3)CC2)c2cc(O)ccc21` [Example 167, 6-hydroxy-1-methyl-2-oxo-4-{4-[4-(trifluoromethoxy)phenoxy]piperidin-1-yl}-1,2-dihydroquinoline-3-carbonitrile] it was 0.94 nM; in that of `COc1ccccc1OC1CCN(c2c(C#N)c(=O)n(C)c3ccccc23)CC1` [Example 11, 4-[4-(2-methoxyphenoxy)piperidin-1-yl]-1-methyl-2-oxo-1,2-dihydroquinoline-3-carbonitrile], 11 nM. `Cn1c(=O)c(C#N)c(N2CCC(OCc3ccccc3)CC2)c2ccccc21` [Example 106, 4-[4-(benzyloxy)piperidin-1-yl]-1-methyl-2-oxo-1,2-dihydroquinoline-3-carbonitrile] showed an IC50 of 8.3 nM. Then `Cn1c(=O)c(C#N)c(N2CCC(C)(Oc3ccc(Br)cc3)CC2)c2ccccc21` [Example 42, 4-[4-(4-bromophenoxy)-4-methylpiperidin-1-yl]-1-methyl-2-oxo-1,2-dihydroquinoline-3-carbonitrile], with 27 nM; and `Cc1ccc2c(c1)c(N1CCC(Oc3ccccc3C#N)CC1)c(C#N)c(=O)n2C` [Example 155, 4-[4-(2-cyanophenoxy)piperidin-1-yl]-1,6-dimethyl-2-oxo-1,2-dihydroquinoline-3-carbonitrile], with 9.3 nM; and `Cn1c(=O)c(C#N)c(N2CCC(Oc3ccc(Cl)cc3)CC2)c2ccc(C3COC3)cc21` [Example 72, 4-[4-(4-chlorophenoxy)piperidin-1-yl]-1-methyl-7-(oxetan-3-yl)-2-oxo-1,2-dihydroquinoline-3-carbonitrile], with 16 nM. In the case of `Cn1c(=O)c(C#N)c(N2CCC(Oc3cccc(C(F)(F)F)c3)CC2)c2ccccc21` [Example 15, 1-methyl-2-oxo-4-{4-[3-(trifluoromethyl)phenoxy]piperidin-1-yl}-1,2-dihydroquinoline-3-carbonitrile] it was 14 nM; in that of `COCCOc1ccc(OC2CCN(c3c(C#N)c(=O)n(C)c4ccccc34)CC2)cc1` [Example 44, 4-{4-[4-(2-methoxyethoxy)phenoxy]piperidin-1-yl}-1-methyl-2-oxo-1,2-dihydroquinoline-3-carbonitrile], 45 nM; in that of `Cn1c(=O)c(C#N)c(N2CCC(Oc3ccc(OC(F)(F)F)cc3)CC2)c2ccc(F)cc21` [Example 63, 7-fluoro-1-methyl-2-oxo-4-{4-[4-(trifluoromethoxy)phenoxy]piperidin-1-yl}-1,2-dihydroquinoline-3-carbonitrile], 12 nM.

In turn, `Cn1c(=O)c(C#N)c(N2CCC(Oc3ccc(OC(F)(F)F)cc3)CC2)c2cccc(F)c21` [Example 129, 8-fluoro-1-methyl-2-oxo-4-{4-[4-(trifluoromethoxy)phenoxy]piperidin-1-yl}-1,2-dihydroquinoline-3-carbonitrile] displayed an IC50 of 29 nM.

Compound `Cn1c(=O)c(C#N)c(N2CCC(Oc3ccc(OC(F)(F)F)cc3)CC2)c2ccccc21` [Example 2, 1-methyl-2-oxo-4-{4-[4-(trifluoromethoxy)phenoxy]piperidin-1-yl}-1,2-dihydroquinoline-3-carbonitrile] yielded an IC50 of 3.9 nM.

In turn, `Cn1c(=O)c(C#N)c(N2CCC(Oc3ccccc3F)CC2)c2ccccc21` [Example 33, 4-[4-(2-fluorophenoxy)piperidin-1-yl]-1-methyl-2-oxo-1,2-dihydroquinoline-3-carbonitrile] had an IC50 of 13 nM. Against the preceding compound, the IC50 is about 3.3-fold higher. In the case of `Cn1c(=O)c(C#N)c(N2CCC(Oc3cccc(OC(F)(F)F)c3)CC2)c2ccc(P(C)(C)=O)cc21` [Example 78, 7-(dimethylphosphoryl)-1-methyl-2-oxo-4-{4-[3-(trifluoromethoxy)phenoxy]piperidin-1-yl}-1,2-dihydroquinoline-3-carbonitrile] it was 1130 nM; in that of `Cn1c(=O)c(C#N)c(N2CCC(Oc3ccc(F)cc3)CC2)c2ccc(Br)cc21` [Example 56, 7-bromo-4-[4-(4-fluorophenoxy)piperidin-1-yl]-1-methyl-2-oxo-1,2-dihydroquinoline-3-carbonitrile], 9.9 nM. Then `Cn1c(=O)c(C#N)c(N2CCC(Oc3ccc(C(F)(F)F)cc3)CC2)c2ccc(N3CCCC3=O)cc21` [Example 86, 1-methyl-2-oxo-7-(2-oxopyrrolidin-1-yl)-4-{4-[4-(trifluoromethyl)phenoxy]piperidin-1-yl}-1,2-dihydroquinoline-3-carbonitrile], with 32 nM; and `Cn1c(=O)c(C#N)c(N2CCC(Oc3ccc(OC(F)(F)F)cc3)CC2)c2ccc(O)cc21` [Example 62, 7-hydroxy-1-methyl-2-oxo-4-{4-[4-(trifluoromethoxy)phenoxy]piperidin-1-yl}-1,2-dihydroquinoline-3-carbonitrile], with 2.3 nM; and `Cn1c(=O)c(C#N)c(N2CCC(Sc3ccccc3)CC2)c2cc(C#N)ccc21` [Example 144, 1-methyl-2-oxo-4-[4-(phenylsulfanyl)piperidin-1-yl]-1,2-dihydroquinoline-3,6-dicarbonitrile], with 3 nM. Then `Cn1c(=O)c(C#N)c(N2CCC(Oc3ccc(C#N)cc3)CC2)c2ccccc21` [Example 32, 4-[4-(4-cyanophenoxy)piperidin-1-yl]-1-methyl-2-oxo-1,2-dihydroquinoline-3-carbonitrile], with 31 nM; and `CCOC(=O)c1ccc(OC2CCN(c3c(C(N)=O)c(=O)n(C)c4ccccc34)CC2)cc1` [Example 51, ethyl 4-{[1-(3-carbamoyl-1-methyl-2-oxo-1,2-dihydroquinolin-4-yl)piperidin-4-yl]oxy}benzoate], with 6.1 nM; and `Cn1c(=O)c(C#N)c(N2CCC(Oc3ccc(OC(F)(F)F)cc3)CC2)c2ccc(P(C)(C)=O)cc21` [Example 79, 7-(dimethylphosphoryl)-1-methyl-2-oxo-4-{4-[4-(trifluoromethoxy)phenoxy]piperidin-1-yl}-1,2-dihydroquinoline-3-carbonitrile], with 416 nM.

Take `Cn1c(=O)c(C#N)c(N2CCC(Oc3ccc(N4CCCCC4=O)cc3)CC2)c2ccccc21` [Example 23, 1-methyl-2-oxo-4-{4-[4-(2-oxopiperidin-1-yl)phenoxy]piperidin-1-yl}-1,2-dihydroquinoline-3-carbonitrile]: it took 181 nM to reach half-maximal inhibition (IC50).

`Cn1c(=O)c(C#N)c(N2CCC(COc3cccc(Cl)c3)CC2)c2ccccc21` [Example 119, 4-{4-[(3-chlorophenoxy)methyl]piperidin-1-yl}-1-methyl-2-oxo-1,2-dihydroquinoline-3-carbonitrile] had an IC50 of 34 nM.

`Cn1c(=O)c(C#N)c(N2CCC(Oc3ccccc3C(F)(F)F)CC2)c2ccccc21` [Example 36, 1-methyl-2-oxo-4-{4-[2-(trifluoromethyl)phenoxy]piperidin-1-yl}-1,2-dihydroquinoline-3-carbonitrile] had an IC50 of 164 nM. For the compound `Cn1c(=O)c(C#N)c(N2CCC(C)(Oc3ccc(N)cc3)CC2)c2ccccc21` [Example 41, 4-[4-(4-aminophenoxy)-4-methylpiperidin-1-yl]-1-methyl-2-oxo-1,2-dihydroquinoline-3-carbonitrile], the IC50 was found to be 173 nM.
